Consider eleven compounds from ChEMBL document CHEMBL1127470, “Analogues of the marine immunosuppressant microcolin A: preparation and biological activity” (J Med Chem, 1994).

The species entered for one experiment is Homo sapiens. The experiment can be described thus: The compound was tested for inhibition of human splenocyte proliferation by [3H]thymidine incorporation. Type of experiment: functional, organism-based.
The species entered for another experiment is Mus musculus. The experiment can be described thus: The compound was tested for inhibition of murine splenocyte proliferation by [3H]thymidine incorporation. It counts as functional, organism-based.

As for `CCCCC(C)CC(C)C(=O)N(C)[C@@H](CC(C)C)C(=O)N[C@H](C(=O)N(C)[C@H](C(=O)N1C[C@@H](O)C[C@H]1C(=O)N1C(=O)C=CC1C)C(C)C)C(C)OC(C)=O` (some centres not stated), the 50% effective concentration (EC50) in the experiment filed under Homo sapiens and in the experiment filed under Mus musculus was 0.02 nM throughout.
In the case of `CCCCC(C)CC(C)C(=O)N(C)[C@@H](CC(C)C)C(=O)N[C@H](C(=O)N(C)[C@H](C(=O)N1C[C@@H](O)C[C@H]1C(=O)N1C(=O)C=CC1C)C(C)C)C(C)O` (some centres not stated), the EC50 is 0.04 nM in the experiment filed under Homo sapiens and 0.006 nM in the experiment filed under Mus musculus.
For the compound `CCCCC(C)CC(C)C(=O)N(C)[C@@H](CC(C)C)C(=O)N[C@H](C(=O)N(C)[C@H](C(=O)N1C[C@@H](OC(C)=O)C[C@H]1C(=O)N1C(=O)C=CC1C)C(C)C)C(C)OC(C)=O` (some centres not stated), the EC50 in the experiment filed under Homo sapiens was 10.2 nM; in the experiment listed under Mus musculus, 19 nM.
The corresponding values for `CCCCC(C)CC(C)C(=O)N(C)[C@@H](CC(C)C)C(=O)N[C@H](C(=O)N(C)[C@H](C(=O)N1CCC[C@H]1C(=O)N1C(=O)C=CC1C)C(C)C)C(C)OC(C)=O` (some centres not stated) are 4.1 nM and 20.5 nM.
The corresponding values for `CCCCC(C)CC(C)C(=O)N(C)[C@@H](CC(C)C)C(=O)N[C@H](C(=O)N(C)[C@H](C(=O)OC)C(C)C)C(C)OO` (some centres not stated) are 380 nM and 380 nM.
For `CCCCC(C)CC(C)C(=O)N(C)[C@@H](CC(C)C)C(=O)N[C@H](C(=O)N(C)[C@H](C(=O)N1C[C@@H](O)C[C@H]1C(=O)OC)C(C)C)[C@@H](C)O` (some centres not stated), the EC50 in the experiment listed under Homo sapiens and in the experiment filed under Mus musculus was above 781 nM in each case.
For the compound `CCCCC(C)CC(C)C(=O)N(C)[C@@H](CC(C)C)C(=O)N[C@@H]1C(=O)N(C)[C@@H](C(C)C)C(=O)O[C@@H]1C` (some centres not stated), the EC50 was found to be 8.1 nM in the experiment listed under Homo sapiens and 10 nM in the experiment filed under Mus musculus.
For `CCCCC(C)CC(C)C(=O)N(C)[C@@H](CC(C)C)C(=O)N[C@H](C(=O)N(C)[C@H](C(=O)N1CCC[C@H]1C(=O)N1C(=O)CCC1C)C(C)C)C(C)OC(C)=O` (some centres not stated), in that order: 341 nM and above 668 nM.
Turning to `CC1C=CC(=O)N1C(=O)[C@@H]1C[C@H](O)CN1` (some centres not stated), the EC50 in the experiment listed under Homo sapiens and in the experiment filed under Mus musculus was above 2400 nM in each case.
Turning to `CCCCC(C)CC(C)C(=O)N(C)[C@@H](CC(C)C)C(=O)N[C@H](C(=O)N(C)[C@H](C(=O)N1C[C@@H](O)C[C@H]1C(=O)N1C(=O)CCC1C)C(C)C)C(C)OC(C)=O` (some centres not stated), the EC50 in the experiment filed under Homo sapiens and in the experiment listed under Mus musculus was above 668 nM each time.
For `CCCCC(C)CC(C)C(=O)N(C)[C@@H](CC(C)C)C(=O)N[C@H](C(=O)N(C)[C@H](C(=O)N1CC(=O)C[C@H]1C(=O)N1C(=O)C=CC1C)C(C)C)C(C)OC(C)=O` (single isomer, unassigned), the EC50 in the experiment filed under Homo sapiens and in the experiment listed under Mus musculus was 5.4 nM throughout.

What is called EC50 is the midpoint of the concentration-response curve. Low readings indicate higher potency in that assay, high ones lower potency in that assay.
